Assay results taken from paper PMC10539361, “Allosteric modulation of the fish taste receptor type 1 (T1R) family by the extracellular chloride ion” (Scientific Reports, 2023).
pEC50: −log10 of the molar value.

Key:
zfT1R2a/zfT1R3 [1] = molecular target: T1, zfT1R2a/zfT1R3 (Danio rerio, UniProt A0A8M1N8F9+Q2MHK9); test: Effect of anions, cations and osmotic pressure on cellular responses, cells in 10 mM Cl- buffer, zfT1R2a/zfT1R3; format: cell-based, zebrafish; conditions: for response to fixed concentration of L-Pro on coapplication: coapplied with 160 µM L-Pro, final [Cl-]o up to 60 mM
T1 sequence (A0A8M1N8F9 26-825): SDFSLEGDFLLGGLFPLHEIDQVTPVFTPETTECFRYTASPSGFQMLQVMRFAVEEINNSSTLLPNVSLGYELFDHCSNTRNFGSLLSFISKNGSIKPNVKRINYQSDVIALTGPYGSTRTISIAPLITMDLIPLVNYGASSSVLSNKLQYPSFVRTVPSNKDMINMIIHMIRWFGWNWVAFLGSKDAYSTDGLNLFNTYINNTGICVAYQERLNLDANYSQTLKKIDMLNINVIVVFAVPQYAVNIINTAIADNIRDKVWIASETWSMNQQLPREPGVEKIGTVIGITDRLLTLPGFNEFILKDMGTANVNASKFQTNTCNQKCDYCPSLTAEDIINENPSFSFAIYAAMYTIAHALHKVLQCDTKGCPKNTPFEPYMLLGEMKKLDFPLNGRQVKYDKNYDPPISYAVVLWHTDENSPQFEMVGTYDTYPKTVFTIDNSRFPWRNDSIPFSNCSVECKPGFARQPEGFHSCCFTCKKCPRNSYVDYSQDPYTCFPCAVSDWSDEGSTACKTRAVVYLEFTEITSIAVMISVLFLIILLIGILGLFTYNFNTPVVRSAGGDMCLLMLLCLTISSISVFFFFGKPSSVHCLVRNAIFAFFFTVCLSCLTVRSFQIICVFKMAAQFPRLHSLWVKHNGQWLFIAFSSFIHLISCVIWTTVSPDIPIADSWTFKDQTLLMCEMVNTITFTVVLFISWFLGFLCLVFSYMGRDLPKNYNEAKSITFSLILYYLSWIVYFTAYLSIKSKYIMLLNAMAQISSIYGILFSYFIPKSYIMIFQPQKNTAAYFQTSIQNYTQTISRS
T1 sequence (Q2MHK9 25-850): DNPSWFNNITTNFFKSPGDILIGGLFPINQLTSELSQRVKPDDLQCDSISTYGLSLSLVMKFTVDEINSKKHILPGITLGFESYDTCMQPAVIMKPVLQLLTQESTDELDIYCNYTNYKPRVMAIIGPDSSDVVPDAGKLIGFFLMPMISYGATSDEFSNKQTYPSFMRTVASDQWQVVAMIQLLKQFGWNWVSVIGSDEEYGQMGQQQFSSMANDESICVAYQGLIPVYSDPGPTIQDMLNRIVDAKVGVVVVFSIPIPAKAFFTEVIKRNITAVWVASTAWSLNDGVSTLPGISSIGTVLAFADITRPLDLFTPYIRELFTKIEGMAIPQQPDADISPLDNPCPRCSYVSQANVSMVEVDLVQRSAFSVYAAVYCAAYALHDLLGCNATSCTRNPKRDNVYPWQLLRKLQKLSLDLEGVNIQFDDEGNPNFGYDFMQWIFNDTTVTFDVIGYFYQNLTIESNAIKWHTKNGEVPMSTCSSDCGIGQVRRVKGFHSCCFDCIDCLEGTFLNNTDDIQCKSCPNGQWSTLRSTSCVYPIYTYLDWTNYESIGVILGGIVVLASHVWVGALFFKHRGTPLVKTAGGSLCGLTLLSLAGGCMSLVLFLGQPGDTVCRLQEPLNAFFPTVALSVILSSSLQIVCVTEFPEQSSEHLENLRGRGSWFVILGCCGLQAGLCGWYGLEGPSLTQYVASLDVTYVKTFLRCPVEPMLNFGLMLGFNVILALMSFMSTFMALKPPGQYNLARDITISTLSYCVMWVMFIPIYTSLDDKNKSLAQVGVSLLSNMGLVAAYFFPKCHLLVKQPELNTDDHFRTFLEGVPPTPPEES
Procedure: Cells were seeded in 96-well plates coated with ε-poly-L-lysine at approximately 70,000 cells per well. […] Fluorescence changes were monitored at 2 s intervals, as described above. […] Three independent experiments were conducted for each receptor, and representative results are shown as the mean ± SEM (n = 3 replicates). Statistical tests were conducted using KyPlot version 6.0 (KyensLab Inc., Tokyo, Japan). Statistical significance was set at p < 0.05.

mfT1R2b E260A/mfT1R3 = format: cell-based, medaka fish; conditions: 10 mM vs high Cl- buffer
Procedure: (§1) The buffers with lower Cl^− were prepared by progressively replacing NaCl, KCl, CaCl2 and MgCl2 in the buffer with gluconate equivalents[20]. The pH was adjusted to 7.4 with NaOH. Ligands were diluted with the assay buffers at the desired concentrations.
(§2) Measurements of the responses of the cells by cell-based assay based on the intracellular Ca^2+ mobilization were carried out as described previously with some modifications[20],[34],[46],[47]. […] The cells were seeded in 96-well plates (clear-bottomed CellBIND surface plate, Corning, Glendale, AZ, USA) coated with ε-poly-L-lysine (Cosmo Bio, Tokyo, Japan) at approximately 70,000 cells per well. After 20 h, the medium was removed and replaced with high Cl^− buffer. […] Fluorescence changes (i.e., excitation at 485 nm and emission at 525 nm with a cutoff at 515 nm) were monitored at 2 s intervals. […] The response of each well was determined as ∆RFU (delta relative fluorescent units), which was calculated as (maximum fluorescent value)—(minimum fluorescent value). […] Dose‒response fitting curves were calculated by Prism 9 (GraphPad Software, San Diego, CA) using nonlinear regression (log(agonist) vs. response—variable slope), based on the integrated data from the several independent experiments.

zfT1R2b/zfT1R3 = molecular target: T2, zfT1R2b/zfT1R3 (Danio rerio, UniProt A0A8M1NDZ5+Q2MHK9); test: Ca2+ mobilization dose-response assay, stable cells expressing zfT1R2b/zfT1R3 with G16gust44
T2 sequence (A0A8M1NDZ5 18-823): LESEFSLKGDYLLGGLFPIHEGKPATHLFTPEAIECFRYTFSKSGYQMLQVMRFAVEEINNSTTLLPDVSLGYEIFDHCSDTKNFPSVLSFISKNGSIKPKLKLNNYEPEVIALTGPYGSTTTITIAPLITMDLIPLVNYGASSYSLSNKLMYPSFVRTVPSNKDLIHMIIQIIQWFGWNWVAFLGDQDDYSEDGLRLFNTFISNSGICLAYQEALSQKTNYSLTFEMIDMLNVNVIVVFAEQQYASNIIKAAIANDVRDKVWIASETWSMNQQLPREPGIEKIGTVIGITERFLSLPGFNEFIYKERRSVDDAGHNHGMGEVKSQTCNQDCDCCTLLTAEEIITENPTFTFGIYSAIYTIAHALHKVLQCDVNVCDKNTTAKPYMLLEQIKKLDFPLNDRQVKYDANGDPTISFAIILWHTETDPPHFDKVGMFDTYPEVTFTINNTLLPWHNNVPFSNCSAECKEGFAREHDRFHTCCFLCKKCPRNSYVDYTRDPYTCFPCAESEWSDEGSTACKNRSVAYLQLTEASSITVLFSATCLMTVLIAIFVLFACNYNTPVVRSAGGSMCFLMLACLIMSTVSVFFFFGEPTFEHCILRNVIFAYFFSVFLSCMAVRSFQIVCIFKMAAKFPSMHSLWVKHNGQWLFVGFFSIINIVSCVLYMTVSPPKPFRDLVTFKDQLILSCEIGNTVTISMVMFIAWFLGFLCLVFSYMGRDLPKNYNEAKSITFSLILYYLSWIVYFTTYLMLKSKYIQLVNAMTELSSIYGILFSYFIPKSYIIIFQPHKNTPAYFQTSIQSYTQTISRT
T2 sequence (Q2MHK9 25-850): T1 sequence (Q2MHK9 25-850)
Procedure: as §1
(§3) Measurements of the responses of the cells by cell-based assay based on the intracellular Ca^2+ mobilization were carried out as described previously with some modifications[20],[34],[46],[47]. […] The cells were seeded in 96-well plates (clear-bottomed CellBIND surface plate, Corning, Glendale, AZ, USA) coated with ε-poly-L-lysine (Cosmo Bio, Tokyo, Japan) at approximately 70,000 cells per well. After 20 h, the medium was removed and replaced with high Cl^− buffer. After 3 h 30 min incubation at 27 °C, cells were loaded with 5 µM calcium-indicator dye Fluo-8 AM (AAT Bioquest, Sunnyvale, CA, USA) diluted in high Cl^− buffer. After incubation for 30 min at 27 °C, the cells were washed with buffers containing appropriate concentrations of Cl^−. The cellular assay was initiated after 3–5 min of resting and was completed within 5 min. The measurements were made using FlexStation 3 (Molecular Devices, Sunnyvale, CA, USA) at 27 °C. Fluorescence changes (i.e., excitation at 485 nm and emission at 525 nm with a cutoff at 515 nm) were monitored at 2 s intervals. A 100-µL aliquot of assay buffer supplemented with 2 × ligands was added at 20 s, and scanning was continued for an additional 40 s. The response of each well was determined as ∆RFU (delta relative fluorescent units), which was calculated as (maximum fluorescent value)—(minimum fluorescent value). […] Such normalized data from more than three independent experiments are reported as the mean ± standard error of the mean (SEM). Dose‒response fitting curves were calculated by Prism 9 (GraphPad Software, San Diego, CA) using nonlinear regression (log(agonist) vs. response—variable slope), based on the integrated data from the several independent experiments.

zfT1R2a/zfT1R3 [2] = molecular target: T1, zfT1R2a/zfT1R3; test: Ca2+ mobilization dose-response assay, stable cells expressing zfT1R2a/zfT1R3 with G16gust44
Procedure: as §1, §3

mfT1R2b/mfT1R3 = test: Ca2+ mobilization dose-response assay, stable cells expressing mfT1R2b/mfT1R3 with G16gust44; conditions: 10 mM vs 141.4 mM Cl- buffer
Procedure: as §1, §2

[3] = EC50, [Cl-]o=10 mM, unit inferred

Compound	response to fixed concentration of L-Pro on coapplication (zfT1R2a/zfT1R3 [1])	effect of [Cl-]o on sensitivity (mfT1R2b E260A/mfT1R3)	EC50 in 10 mM Cl- buffer relative to high Cl- buffer (zfT1R2b/zfT1R3; 10 mM vs 141.4 mM Cl- buffer)	pEC50 (zfT1R2b/zfT1R3; [3])	EC50 in 10 mM Cl- buffer relative to high Cl- buffer (zfT1R2a/zfT1R3 [2]; 10 mM vs 141.4 mM Cl- buffer)	pEC50 (zfT1R2a/zfT1R3 [2]; [3])	effect of anionic buffer composition on sensitivity (mfT1R2b/mfT1R3)	cellular response to the salt alone (zfT1R2a/zfT1R3 [1]; without agonist)	[Cl-]o range in which a decrease in sensitivity was observed (zfT1R2b/zfT1R3; agonist L-Ala, buffers with 10-141.4 mM Cl-)	[Cl-]o at which sensitivity is clearly reduced (zfT1R2a/zfT1R3 [2]; agonist L-Pro, buffers with 10-141.4 mM Cl-)
O=C([O-])[C@H](O)[C@@H](O)[C@H](O)[C@H](O)CO.[Na+] [Na-gluconate, sodium gluconate]	did not enhance									
C[C@H](N)C(=O)O [L-Ala, L-alanine]		hardly affected	approximately half	2.89	not influenced	3.88	hardly affected			
[Cl-].[Na+] [NaCl]	enhanced							did not elicit	40 to 141.4 mM	below 80 mM
